pIC50: −log10 of the molar value.
Assays:
IRAK4 kinase = IRAK4 kinase (Homo sapiens (Human), UniProt Q9NWZ3); test: IRAK4 kinase activity test (KinEASE-STK S1 HTRF kit); format: biochemical; conditions: 2.5 nM IRAK4 kinase, 7 μM ATP, 37° C. 120 min
How it was run: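 Human IRAK4 (2.5 nM) with 1 μM biotinylated peptide substrate and 7 μM ATP, incubated 120 min at 37 °C. HTRF read-out (Eu anti-phospho-Ser/Thr antibody, XL665-streptavidin; 665/620 nm ratio) after 1 h at room temperature. IC50 from inhibition relative to control by non-linear fit of log concentration.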

[1] = target: IRAK4 protein in THP-1 cells (Homo sapiens (Human), UniProt Q9NWZ3); test: Degradation of IRAK4 in THP-1 cells, human IRAK4 AlphaLISA assay; format: cell-based; conditions: 24 h incubation
How it was run: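 THP-1 cells, after overnight plating, exposed 24 h at 37 °C to compound at 0.03-3000 nM final. Lysate IRAK4 read by Western blot and by AlphaLISA (acceptor beads 10 μg/mL, biotin anti-IRAK4 1 nM, donor beads 40 μg/mL, 23 °C). DC50 and Dmax from log concentration-response fit.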

[2] = tested on: IL-6 production in LPS-induced human PBMCs; test: IL-6 secreted by LPS-induced human PBMCs (IL-6 AlphaLISA); format: cell-based; conditions: PBMC, compound 1 h or 20 h, then LPS 100 ng/mL 5 h, read-out: hPBMC IC50
Experimental: Frozen human PBMCs (Milestone, PB010C) were thawed and resuspended in RPMI 1640 medium (Gibco, A1049101) supplemented with 10%/o fetal bovine serum (Gibco, 10099141), 100 U/mL penicillin and 100 sg/mL streptomycin (Gibco, 15140122). On the same day. PBMCs were plated onto a 96-well clear cell plate (Labserv, 310109008) at 150 μL/well, with a cell density of 2×10^5 cells/well. Then 50 μL of diluted compound solution was added to corresponding wells with cells, such that the final concentration of the compound fell within the range of 0.026-10,000 nM. The final concentration of DMSO was 0.25%. […]
IL-6 standard solutions with different concentrations, ranging from […], were prepared by following the instructions for use of the product, 2 μL of each of the IL-6 standard solutions and test samples of cell supernatant were added to a white 384-well plate (PerkinElmer, 6007299), and 8 μL of a mixed solution of 5×anti-IL-6 receptor beads (final concentration of 10 μg/mL) and biotin-labeled anti-IL-6 antibody (final concentration of 1 nM) was then added to each well. […] After the incubation was complete, AlphaLISA signal values were measured on a microplate reader EnVision (PerkinElmer, 2105) in the AlphaScreen standard mode. […] The inhibition rate of the compound at each concentration was calculated by comparing the IL-6 concentration with that of the control group. […]

[3] = tested on: IL-6 production in LPS-induced human whole blood; test: IL-6 secreted by LPS-induced normal human whole blood PBMCs (IL-6 AlphaLISA); format: cell-based; conditions: compound 20 h, then LPS 100 ng/mL 5 h
Experimental: Fresh normal human whole blood (healthy people from 22-50 years of age, freshly collected blood) anticoagulated with heparin sodium was plated onto a 96-well clear cell plate (Labserv, 310109008) at 190 μL/well, and 10 μL of diluted compound solution was then added to corresponding wells, such that the final concentration of the compound fell within the range of 10-20,000 nM. The final concentration of dimethyl sulfoxide was 0.1%. The compound-treated cell plate was sealed with a plate-sealing membrane. After the plate was incubated in a 37° C., 5% carbon dioxide incubator for 20 h, 10 μL of LPS (0111:B4) (Sigma, L4391) was added, making a final concentration of 100 ng/mL. […]
IL-6 standard solutions with different concentrations, ranging from […], were prepared by following the instructions for use of the product, 2 μL of each of the IL-6 standard solutions and test samples of cell supernatant were added to a white 384-well plate (PerkinElmer, 6007299), and 8 μL of a mixed solution of 5× anti-IL-6 receptor beads (PerminElmer, final concentration of 10 μg/mL) and biotin-labeled anti-IL-6 antibody (PerminElmer, final concentration of 1 nM) was then added to each well. […] After the incubation was complete, AlphaLISA signal values were measured on a microplate reader EnVision (PerkinElmer, 2105) in the AlphaScreen standard mode. […]

Sequence of IRAK4 protein in THP-1 cells (Q9NWZ3 whole entry): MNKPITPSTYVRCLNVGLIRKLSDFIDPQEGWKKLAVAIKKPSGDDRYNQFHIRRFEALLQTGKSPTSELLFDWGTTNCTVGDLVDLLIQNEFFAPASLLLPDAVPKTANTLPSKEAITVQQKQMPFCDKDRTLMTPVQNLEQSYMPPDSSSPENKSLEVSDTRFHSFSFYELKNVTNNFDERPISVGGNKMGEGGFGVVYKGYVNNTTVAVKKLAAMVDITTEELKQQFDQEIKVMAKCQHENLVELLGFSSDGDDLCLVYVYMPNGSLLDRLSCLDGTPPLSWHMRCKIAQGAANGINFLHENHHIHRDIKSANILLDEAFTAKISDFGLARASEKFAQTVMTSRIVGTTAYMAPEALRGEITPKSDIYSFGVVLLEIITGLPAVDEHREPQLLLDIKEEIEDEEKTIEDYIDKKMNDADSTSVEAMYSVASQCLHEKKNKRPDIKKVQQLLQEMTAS
Sequence of IRAK4 kinase (Q9NWZ3 whole entry): as above

Structure (SMILES)	pIC50 (IRAK4 kinase)	DC50 [1]	Dmax [1]	pIC50 [2]	pIC50 [3]
O=C1CCN(c2cc(C(=O)N3CCC4(CCN(C[C@H]5CC[C@H](n6cc(NC(=O)c7cnn8ccc(N9C[C@H]%10C[C@@H]9CO%10)nc78)c(C(F)F)n6)CC5)CC4)CC3)ccc2Cl)C(=O)N1 [Example 2, 5-((1R,4R)-2-oxa-5-azabicyclo[2.2.1]heptan-5-yl)-N-(1-((1r,4R)-4-((9-(4-chloro-3-(2,4-dioxotetrahydropyrimidin-1(2H)-yl)benzoyl)-3,9-diazaspiro[5.5]undecan-3-yl)methyl)cyclohexyl)-3-(difluoromethyl)-1H-pyrazol-4-yl)pyrazolo[1,5-a]pyrimidine-3-carboxamide]	7.81	1.8 nM	95.8%	8.66	6.61
O=C1CCN(c2cc(C(=O)N3CCC4(CCC(CN5CCC(n6cc(NC(=O)c7cnn8ccc(N9C[C@H]%10C[C@@H]9CO%10)nc78)c(C(F)F)n6)CC5)CC4)CC3)ccc2Cl)C(=O)N1 [Example 1, 5-((1R,4R)-2-oxa-5-azabicyclo[2.2.1]heptan-5-yl)-N-(1-(1-((3-(4-chloro-3-(2,4-dioxotetrahydropyrimidin-1(2H)-yl)benzoyl)-3-azaspiro[5.5]undecan-9-yl)methyl)piperidin-4-yl)-3-(difluoromethyl)-1H-pyrazol-4-yl)pyrazolo[1,5-a]pyrimidine-3-carboxamide]	7.52	3.7 nM	90%	8.51	6.54
